Laboratory results: patent US11530244B2, “Cyclic polypeptides for PCSK9 inhibition” (priority 2018, dated 2022)
pIC50: −log10 of the molar value. Starred links: 1 amine or outer side, 2 acyl side, 3 side chain; linkers in the order of their positions; H or OH if unused. Positions of bridges follow the written chain, without caps; N, C: chain ends. Non-standard residues stand in square brackets, D forms with d. Residues, ends and D or L forms follow the SMILES beside them. Phe(4-COOH) = N[C@@H](Cc1ccc(C(=O)O)cc1)C(=O)O; Trp(5-F) = N[C@@H](Cc1c[nH]c2ccc(F)cc12)C(=O)O; Trp(6-F) = N[C@@H](Cc1c[nH]c2cc(F)ccc12)C(=O)O; Pyridine(3,5-bisCH2) = c1ncc(C[*:2])cc1C[*:1]; Pro(trans-4-F) = O=C(O)[C@@H]1C[C@@H](F)CN1; Asp(3,3-Me2) = CC(C)(C(=O)O)[C@H](N)C(=O)O; Pro(cis-4-F) = O=C(O)[C@@H]1C[C@H](F)CN1; mXylylene = c1cc(C[*:1])cc(C[*:2])c1; X15 = Brc1cc(C[*:1])cc(C[*:2])c1; X22 = Oc1cc(C[*:1])cc(C[*:2])c1; aThr = C[C@H](O)[C@H](N)C(=O)O; αMeP = C[C@@]1(C(=O)O)CCCN1; Ahx = NCCCCCC(=O)O; Mpa = O=C(O)CCS

Columns and labels:
[1] = biological target: human PCSK9 / human LDLR EGFa domain interaction (Homo sapiens (Human), UniProt Q8NBP7); assay: TR-FRET assay of inhibition of the PCSK9-LDLR protein-protein interaction; assay type: binding; conditions: TR-FRET, 20 nM human PCSK9, 20 nM human LDLR EGFa domain, 2 hours room temperature; read-out: IC50
How it was run: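 Half-maximal inhibition was derived by 4-parameter fitting of dose-response TR-FRET data. Each well held 20 nM His-LDLR EGFa, 20 nM avitag-biotinylated PCSK9, Eu-anti-6×His and Ulight-streptavidin (5 nM each) in 50 mM HEPES, 150 mM NaCl, 5 mM CaCl2, 0.01% BSA, 0.01% Surfactant P20, incubated 2 h at room temperature.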

PCSK9 = PCSK9 (Homo sapiens (Human), UniProt Q8NBP7); assay: PCSK9 Alexa FRET Standard assay (displacement of AlexaFluor647 tagged cyclic peptide Reagent A); assay type: binding; conditions: PCSK9 Alexa FRET Standard assay, 0.5 nM PCSK9, 20 nM AF cyclic peptide Reagent A; read-out: IC50
How it was run: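 TR-FRET displacement: 0.5 nM biotinylated PCSK9 with 1.25 nM Strep-Eu and 20 nM AlexaFluor-tagged cyclic peptide (final) in 50 mM HEPES pH 7.4, 0.15 M NaCl, 5 mM CaCl2, 0.01% BSA, 0.01% P20, ≥2 h at room temperature. IC50 from sigmoidal fit, converted to Ki via peptide KD; falling Eu counts flagged false positives.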

Sequence of PCSK9 (Q8NBP7 153-692): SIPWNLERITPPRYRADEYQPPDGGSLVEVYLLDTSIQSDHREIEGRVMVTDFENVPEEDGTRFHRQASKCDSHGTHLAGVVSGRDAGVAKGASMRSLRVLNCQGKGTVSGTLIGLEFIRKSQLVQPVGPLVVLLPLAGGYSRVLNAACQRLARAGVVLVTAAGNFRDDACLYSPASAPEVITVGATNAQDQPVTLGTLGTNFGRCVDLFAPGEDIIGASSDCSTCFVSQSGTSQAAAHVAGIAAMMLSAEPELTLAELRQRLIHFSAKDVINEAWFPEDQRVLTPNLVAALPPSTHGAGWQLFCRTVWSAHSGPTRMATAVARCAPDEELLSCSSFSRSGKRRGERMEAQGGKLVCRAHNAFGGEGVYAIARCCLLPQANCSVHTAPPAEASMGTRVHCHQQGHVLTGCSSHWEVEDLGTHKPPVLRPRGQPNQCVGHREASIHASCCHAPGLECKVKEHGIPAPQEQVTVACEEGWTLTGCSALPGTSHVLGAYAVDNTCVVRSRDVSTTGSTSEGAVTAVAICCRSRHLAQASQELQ
Sequence of human PCSK9 / human LDLR EGFa domain interaction (Q8NBP7 153-692): as above
Sequence of human PCSK9 / human LDLR EGFa domain interaction (Q8NBP7 31-152 partner): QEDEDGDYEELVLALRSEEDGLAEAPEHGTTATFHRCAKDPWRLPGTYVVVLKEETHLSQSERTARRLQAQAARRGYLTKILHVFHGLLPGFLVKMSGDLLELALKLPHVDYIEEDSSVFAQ

| pIC50 [1] | pIC50 (PCSK9) | SMILES |
| --- | --- | --- |
| 7.00 to 10.00 | 6.00 to 7.00 | COc1ccc(C[C@@H]2NC(=O)[C@H]([C@@H](C)O)NC(=O)[C@@H]3CCCN3C(=O)[C@H](Cc3c[nH]c4ccc(F)cc34)NC(=O)[C@H](Cc3c[nH]c4ccc(F)cc34)NC(=O)[C@@H](C)NC(=O)[C@H](CCCCN)NC(=O)CCSCc3cccc(c3)CSC[C@@H](C(N)=O)NC(=O)[C@]3(C)CCCN3C2=O)cc1 [Compound 054] ([Mpa]K[dA][Trp(5-F)][Trp(5-F)]PTY(Me)[αMeP]C-NH2; linker 1-10 via mXylylene) |
| 4.92 to 6.00 | 4.30 to 4.68 | C[C@H]1NC(=O)[C@H](C(C)(C)C(=O)O)NC(=O)[C@H](Cc2c[nH]c3ccc(F)cc23)NC(=O)[C@H](Cc2c[nH]c3ccc(F)cc23)NC(=O)CNC(=O)[C@H](CCCCN)NC(=O)CCSCc2cccc(c2)CSC[C@@H](C(N)=O)NC(=O)[C@]2(C)CCCN2C(=O)[C@H](Cc2ccc(O)cc2)NC1=O [Compound 055] ([Mpa]KG[Trp(5-F)][Trp(5-F)][Asp(3,3-Me2)][dA]Y[αMeP]C-NH2; linker 1-10 via mXylylene) |
| 7.00 to 10.00 | 7.00 to 9.96 | COc1ccc(C[C@@H]2NC(=O)[C@H]([C@@H](C)O)NC(=O)[C@@H]3CCCN3C(=O)[C@H](Cc3c[nH]c4ccc(F)cc34)NC(=O)[C@H](Cc3c[nH]c4ccc(F)cc34)NC(=O)[C@@H](C)NC(=O)[C@H](CCCCN)NC(=O)CCSCc3cncc(c3)CSC[C@@H](C(N)=O)NC(=O)[C@]3(C)CCCN3C2=O)cc1 [Compound 058] ([Mpa]K[dA][Trp(5-F)][Trp(5-F)]PTY(Me)[αMeP]C-NH2; linker 1-10 via Pyridine(3,5-bisCH2)) |
| 6.00 to 7.00 | 6.00 to 7.00 | CO[C@H](C)[C@@H]1NC(=O)[C@@H]2C[C@@H](F)CN2C(=O)[C@H](Cc2c[nH]c3ccc(F)cc23)NC(=O)[C@H](Cc2c[nH]c3ccc(F)cc23)NC(=O)CNC(=O)[C@H](CCCCN)NC(=O)CCSCc2cccc(c2)CSC[C@@H](C(N)=O)NC(=O)[C@]2(C)CCCN2C(=O)[C@H](Cc2ccc(O)cc2)NC1=O [Compound 059] ([Mpa]KG[Trp(5-F)][Trp(5-F)][Pro(trans-4-F)]T(Me)Y[αMeP]C-NH2; linker 1-10 via mXylylene) |
| 4.30 to 4.68 | 4.30 to 4.68 | COc1ccc(C[C@@H]2NC(=O)[C@H]([C@@H](C)O)NC(=O)[C@@H]3CCCN3C(=O)[C@H](Cc3c[nH]c4ccc(F)cc34)NC(=O)[C@H](Cc3c[nH]c4ccc(F)cc34)NC(=O)[C@@H](C)NC(=O)[C@H](CCCCN)NC(=O)CCSCc3cc(O)cc(c3)CSC[C@@H](C(N)=O)NC(=O)[C@]3(C)CCCN3C2=O)cc1 [Compound 060] ([Mpa]K[dA][Trp(5-F)][Trp(5-F)]PTY(Me)[αMeP]C-NH2; linker 1-10 via X22) |
| 4.30 to 4.68 | 4.30 to 4.68 | COc1ccc(C[C@@H]2NC(=O)[C@H]([C@@H](C)O)NC(=O)[C@@H]3CCCN3C(=O)[C@H](Cc3c[nH]c4ccc(F)cc34)NC(=O)[C@H](Cc3c[nH]c4ccc(F)cc34)NC(=O)[C@@H](C)NC(=O)[C@H](CCCCN)NC(=O)CCSCc3cc(Br)cc(c3)CSC[C@@H](C(N)=O)NC(=O)[C@]3(C)CCCN3C2=O)cc1 [Compound 061] ([Mpa]K[dA][Trp(5-F)][Trp(5-F)]PTY(Me)[αMeP]C-NH2; linker 1-10 via X15) |

| SMILES | pIC50 [1] | pIC50 (PCSK9) |
| --- | --- | --- |
| COc1ccc(C[C@@H]2NC(=O)[C@H]([C@H](C)O)NC(=O)[C@@H]3C[C@H](F)CN3C(=O)[C@H](Cc3c[nH]c4cc(F)ccc34)NC(=O)[C@H](Cc3c[nH]c4ccc(F)cc34)NC(=O)[C@@H](C)NC(=O)CCCCCNC(=O)c3ccc(cc3)C[C@@H](C(N)=O)NC(=O)[C@]3(C)CCCN3C2=O)cc1 [Compound 057] ([Ahx][dA][Trp(5-F)][Trp(6-F)][Pro(cis-4-F)][aThr]Y(Me)[αMeP][Phe(4-COOH)]-NH2; lactam N-9) | 4.92 to 6.00 | 4.30 to 4.68 |
